From ChEMBL document CHEMBL1137255, “HIV-1 protease mutations and inhibitor modifications monitored on a series of complexes. Structural basis for the effect of the A71V mutation on the active site” (J Med Chem, 2006)
pKi: −log10 of the molar value.

What was measured:
[1] = target: T1, Human immunodeficiency virus type 1 protease (Human immunodeficiency virus 1, UniProt Q72874); experiment: Inhibition of wild type HIV1 protease
[2] = target: T1, Human immunodeficiency virus type 1 protease; experiment: Inhibition of HIV1 protease I8 mutant

SMILES	pKi [1]	pKi [2]
CC(C)(C)OC(=O)N[C@@H](Cc1ccccc1)[C@@H](O)CN[C@@H](Cc1ccccc1)C(=O)N[C@@H](CCC(N)=O)C(=O)N[C@@H](Cc1ccccc1)C(N)=O	7.48	6.00
CC(C)(C)OC(=O)N[C@@H](Cc1ccccc1)[C@@H](O)C[C@@H](Cc1ccccc1)C(=O)N[C@@H](CCC(N)=O)C(=O)N[C@@H](Cc1ccccc1)C(N)=O	10.70	9.59
CC(C)(C)OC(=O)N[C@@H](Cc1ccccc1)[C@@H](O)CN[C@@H](Cc1ccccc1)C(=O)N[C@@H](CCC(=O)O)C(=O)N[C@@H](Cc1ccccc1)C(N)=O	9.82	7.07
